From patent publication US12729377B2, “RNAi agents and compositions for inhibiting expression of angiopoietin-like 3 (ANGPTL3), and methods of use” (Arrowhead Pharmaceuticals, Inc., priority 2017, dated 2026)

Columns and labels:
ANGPTL3 gene [1] = experiment: Example 9: serum LDL in cynomolgus monkeys; assay type: in vivo, cynomolgus macaque (Macaca fascicularis); conditions: 2.0 mg/kg single SC injection day 1, cynos, n=3
Protocol: (§1) Additional ANGPTL3 RNAi agents were evaluated in cynomolgus monkeys. On day 1, cynomolgus macaque (Macaca fascicularis) primates (also referred to herein as “cynos”) were administered a single subcutaneous injection of 0.3 mL/kg (approximately 2-3 mL volume, depending on animal mass) containing 2.0 mg/kg of an ANGPTL3 RNAi agent, which included either AD05488, AD05743, AD05775, or AD05841, each formulated in saline. […] ANGPTL3 RNAi agents AD05488, AD05743, and AD05775 included nucleotide sequences designed to target position 304 of the ANGPTL3 gene. ANGPTL3 RNAi agent AD05841 included nucleotide sequences designed to target position 1035 of the ANGPTL3 gene.
(§2) Three (3) cynos in each group were tested (n=3). Blood samples were drawn and serum samples were analyzed on days −14 (predose), −7 (predose), 1 (pre-dose), 8, 15, 22, 29, and 35. Cynos were fasted overnight prior to each collection. ANGPTL3 protein levels in serum were measured by ELISA assay (R&D Systems), according to the manufacturer's recommendations. Triglycerides, total cholesterol, high-density lipoprotein (HDL), and low-density lipoprotein (LDL) in serum were measured on a Cobas® Integra 400 (Roche Diagnostics), according to the manufacturer's recommendations.
(§3) The ANGPTL3 protein levels, triglyceride levels, total cholesterol levels, HDL levels, and LDL levels for each animal were normalized. For normalization, the level of ANGPTL3 protein, triglyceride, HDL, and total cholesterol, respectively, for each animal at a time point, was divided by the average pre-treatment level of expression in that animal (in this case at days −14, −7, and 1) to determine the ratio of expression “normalized to pre-treatment.”

ANGPTL3 gene [2] = experiment: Example 7: serum total cholesterol in mice; assay type: in vivo, C57bl/6 mice; set-up: key: ratio: (level/pre-treatment day -1 level) ÷ mean of D5W control group
Protocol: (§4) To further assess the in vivo activity of additional ANGPTL3 RNAi agents that are designed to target position 304 on the ANGPTL3 gene, six- to eight-week-old female C57bl/6 mice were used. Pre-dose serum samples were taken at day −1 after a four hour fast. At day 1, each mouse was given a single subcutaneous administration of 200 μl containing 0.5 mg/kg (mpk) of an ANGPTL3 RNAi agent in D5W (dextrose in 5% water), or control (D5W) with no RNAi agent, according to the dosing groups recited in Table 31.
(§5) Each of the RNAi agents included a modified sequence and an N-acetyl-galactosamine-containing targeting ligand conjugated to the 5′ terminal end of the sense strand. (See Tables 3, 4, and 5 for modified sequences and targeting ligand structures). The injections were performed between the skin and muscle (i.e. subcutaneous injections) into the loose skin over the neck and shoulder area. Three (3) mice in each group were tested (n=3). Serum was collected on days 8, 15, 22, and 29. Mice were fasted for four hours prior to each collection. ANGPTL3 protein levels in serum were measured by ELISA assay (R&D Systems), according to the manufacturer's recommendations. Triglycerides, total cholesterol, high-density lipoprotein (HDL), and low-density lipoprotein (LDL) in serum were measured on a Cobas® Integra 400 (Roche Diagnostics), according to the manufacturer's recommendations.
(§6) The ANGPTL3 protein levels, triglyceride levels, total cholesterol levels, HDL levels, and LDL levels for each animal were normalized. For normalization, the level of ANGPTL3 protein, triglyceride, HDL, and total cholesterol, respectively, for each animal at a time point, was divided by the pre-treatment level of expression in that animal (in this case at day −1) to determine the ratio of expression “normalized to pre-treatment.” Expression at a specific time point was then normalized to the D5W control group by dividing the “normalized to pre-treatment” ratio for an individual animal by the mean “normalized to pretreatment” ratio of all mice in the D5W control group.

ANGPTL3 gene [3] = experiment: Example 7: serum HDL in mice; assay type: in vivo; set-up: key: ratio: (level/pre-treatment day -1 level) ÷ mean of D5W control group; conditions: 0.5 mg/kg single SC injection day 1, female C57bl/6 mice, n=3, ratio to D5W control
Protocol: as §4, §5, §6

ANGPTL3 gene [4] = experiment: Example 7: serum LDL in mice; assay type: in vivo; set-up: key: ratio: (level/pre-treatment day -1 level) ÷ mean of D5W control group; conditions: 0.5 mg/kg single SC injection day 1, female C57bl/6 mice, n=3, ratio to D5W control
Protocol: as §4, §5, §6

ANGPTL3 gene [5] = experiment: Example 9: serum triglycerides in cynomolgus monkeys; assay type: in vivo, cynomolgus macaque (Macaca fascicularis); conditions: 2.0 mg/kg single SC injection day 1, cynos, n=3
Protocol: as §1, §2, §3

ANGPTL3 protein [6] = experiment: Example 9: serum ANGPTL3 protein by ELISA in cynomolgus monkeys; assay type: in vivo, cynomolgus macaque (Macaca fascicularis); conditions: for Average ANGPTL3 Protein Normalized to Pre-Treatment: 2.0 mg/kg single SC injection day 1, cynos, n=3
Protocol: as §1, §2, §3

ANGPTL3 gene [7] = experiment: Example 9: serum total cholesterol in cynomolgus monkeys; assay type: in vivo, cynomolgus macaque (Macaca fascicularis); conditions: 2.0 mg/kg single SC injection day 1, cynos, n=3
Protocol: as §1, §2, §3

ANGPTL3 gene [8] = experiment: Example 7: serum triglycerides in mice; assay type: in vivo, C57bl/6 mice; set-up: key: ratio: (level/pre-treatment day -1 level) ÷ mean of D5W control group
Protocol: as §4, §5, §6

ANGPTL3 protein [9] = experiment: Example 7: serum ANGPTL3 protein by ELISA in mice; assay type: in vivo, C57bl/6 mice; set-up: key: ratio: (level/pre-treatment day -1 level) ÷ mean of D5W control group
Protocol: as §4, §5, §6

ANGPTL3 gene [10] = experiment: Example 9: serum HDL in cynomolgus monkeys; assay type: in vivo, cynomolgus macaque (Macaca fascicularis); conditions: 2.0 mg/kg single SC injection day 1, cynos, n=3
Protocol: as §1, §2, §3

[11] = Day 8, 0.5 mg/kg single SC injection on day 1, n=3
[12] = Day 15, 0.5 mg/kg single SC injection on day 1, n=3
[13] = Day 22, 0.5 mg/kg single SC injection on day 1, n=3
[14] = Day 29, 0.5 mg/kg single SC injection on day 1, n=3

For “AD05775: RNAi agent duplex: antisense AM07235-AS, sense AM07608-SS (antisense UACUGAUCAAAUAUGUUGAGC; sense GCUCAACAUNUUUGAUCAGUA; (NAG37)s GalNAc ligand; RNAi agent antisense strand modified sequence; RNAi agent sense strand modified sequence; modified_base 10 n = 2′-O-methyl-2-aminoadenosine-3′-phosphate)”, the “Average LDL Normalized to Pre-Treatment” value (ANGPTL3 gene [1]; Day 8) was 1.134, the “Average LDL Normalized to Pre-Treatment” value (ANGPTL3 gene [1]; Day 15) was 0.909 and the “Average LDL Normalized to Pre-Treatment” value (ANGPTL3 gene [1]; Day 22) was 1.089. The “Average LDL Normalized to Pre-Treatment” value (ANGPTL3 gene [1]; Day 29) was 1.034, the “Average LDL Normalized to Pre-Treatment” value (ANGPTL3 gene [1]; Day 35) was 1.008 and the “Avg Total Chol, normalized to pre-treatment and control” value (“Avg Total Chol, normalized” below) (ANGPTL3 gene [2]; [11]) was 0.794. The “Avg Total Chol, normalized” value (ANGPTL3 gene [2]; [12]) was 0.777, the “Avg Total Chol, normalized” value (ANGPTL3 gene [2]; [13]) was 0.812 and the “Avg Total Chol, normalized” value (ANGPTL3 gene [2]; [14]) was 1.108. For the same substance, the “Avg HDL, normalized to pre-treatment and control” value (from here on “Avg HDL, normalized”) (ANGPTL3 gene [3]; Day 8) was 0.754, the “Avg HDL, normalized” value (ANGPTL3 gene [3]; Day 15) was 0.757 and the “Avg HDL, normalized” value (ANGPTL3 gene [3]; Day 22) was 0.736. For the same substance, the “Avg HDL, normalized” value (ANGPTL3 gene [3]; Day 29) was 1.069, the “Avg LDL, normalized to pre-treatment and control” value (“Avg LDL, normalized” below) (ANGPTL3 gene [4]; Day 8) was 0.975 and the “Avg LDL, normalized” value (ANGPTL3 gene [4]; Day 15) was 0.918. For the same substance, the “Avg LDL, normalized” value (ANGPTL3 gene [4]; Day 22) was 1.095, the “Avg LDL, normalized” value (ANGPTL3 gene [4]; Day 29) was 1.534 and the “Average Triglycerides Normalized to Pre-Treatment” value (shortened to “Average Triglycerides Normalized”) (ANGPTL3 gene [5]; Day 8) was 0.466. The “Average Triglycerides Normalized” value (ANGPTL3 gene [5]; Day 15) was 0.427, the “Average Triglycerides Normalized” value (ANGPTL3 gene [5]; Day 22) was 0.552 and the “Average Triglycerides Normalized” value (ANGPTL3 gene [5]; Day 29) was 0.391. For the same substance, the “Average Triglycerides Normalized” value (ANGPTL3 gene [5]; Day 35) was 0.431, the “Average ANGPTL3 Protein Normalized to Pre-Treatment” value (“Average ANGPTL3 Protein Normalized” below) (ANGPTL3 protein [6]; Day 8) was 0.463 and the “Average ANGPTL3 Protein Normalized” value (ANGPTL3 protein [6]; Day 15) was 0.352. For the same substance, the “Average ANGPTL3 Protein Normalized” value (ANGPTL3 protein [6]; Day 22) was 0.330, the “Average ANGPTL3 Protein Normalized” value (ANGPTL3 protein [6]; Day 29) was 0.365 and the “Average ANGPTL3 Protein Normalized” value (ANGPTL3 protein [6]; Day 35) was 0.379. For the same substance, the “reduction in ANGPTL3 protein compared to pre-treatment” value (ANGPTL3 protein [6]; each of the measured time points, single 2.0 mg/kg subcutaneous, cynomolgus monkeys) was “reduction”, the “Average Total Cholesterol Normalized to Pre-Treatment” value (“Average Total Cholesterol Normalized” below) (ANGPTL3 gene [7]; Day 8) was 0.965 and the “Average Total Cholesterol Normalized” value (ANGPTL3 gene [7]; Day 15) was 0.811. For the same substance, the “Average Total Cholesterol Normalized” value (ANGPTL3 gene [7]; Day 22) was 0.811, the “Average Total Cholesterol Normalized” value (ANGPTL3 gene [7]; Day 29) was 0.813 and the “Average Total Cholesterol Normalized” value (ANGPTL3 gene [7]; Day 35) was 0.770. The “Avg TG, normalized to pre-treatment and control” value (from here on “Avg TG, normalized”) (ANGPTL3 gene [8]; [11]) was 0.837, the “Avg TG, normalized” value (ANGPTL3 gene [8]; [12]) was 0.610 and the “Avg TG, normalized” value (ANGPTL3 gene [8]; [13]) was 0.819. The “Avg TG, normalized” value (ANGPTL3 gene [8]; [14]) was 0.885, the “Avg ANGPTL3, normalized to pre-treatment and control” value (shortened to “Avg ANGPTL3, normalized”) (ANGPTL3 protein [9]; [11]) was 0.247 and the “Avg ANGPTL3, normalized” value (ANGPTL3 protein [9]; [12]) was 0.232. For the same substance, the “Avg ANGPTL3, normalized” value (ANGPTL3 protein [9]; [13]) was 0.218, the “Avg ANGPTL3, normalized” value (ANGPTL3 protein [9]; [14]) was 0.300 and the “Average HDL Normalized to Pre-Treatment” value (ANGPTL3 gene [10]; Day 8) was 0.904. The “Average HDL Normalized to Pre-Treatment” value (ANGPTL3 gene [10]; Day 15) was 0.871, the “Average HDL Normalized to Pre-Treatment” value (ANGPTL3 gene [10]; Day 22) was 0.737 and the “Average HDL Normalized to Pre-Treatment” value (ANGPTL3 gene [10]; Day 29) was 0.781. The “Average HDL Normalized to Pre-Treatment” value (ANGPTL3 gene [10]; Day 35) was 0.723.
